Source: patent US20210317145A1, “Boronic Acid Derivatives” (Merck Patent GmbH, priority 2018, published 2021)
pIC50: −log10 of the molar value.

How the values were obtained:
[1] = target: Beta5 (purified human constitutive proteasome) (Homo sapiens, UniProt P20618+P28074); test: Determination of Beta5 activity (fluorescence intensity assay, Suc-LLVY-AMC); assay type: biochemical; settings: purified human constitutive proteasome 1.25 nM, incubation for 20 minutes at 25° C., Suc-LLVY-AMC 40 μM
Method: Determination of Beta5 Activity:
Measurement of Beta5 inhibition is performed in 384 well format based on fluorescence intensity assay.
(§1) Purified human constitutive proteasome (1.25 nM) and serial diluted compounds in DMSO (range of concentrations from 30 μM to […]) or controls are incubated for 20 minutes or 120 minutes (long incubation) at 25° C. in assay buffer containing 50 mM Tris pH 7.4, 0.03% SDS, 1 mM EDTA and 1% DMSO. The reaction is initiated by the addition of the fluorogenic peptide substrate, Suc-LLVY-AMC (Bachem 1-1395), at a concentration of 40 μM. After 60 minutes of incubation at 37° C., fluorescence intensity is measured at λex=350 nm and λem=450 nm with a fluorescence reader (Perkin Elmer Envision reader or equivalent).
(§2) Unless indicated otherwise the results are obtained after incubation for 20 minutes.

[2] = target: LMP7 (purified human immuno proteasome) (Homo sapiens, UniProt P20618+P28062); test: Determination of LMP7 activity (fluorescence intensity assay, Suc-LLVY-AMC); assay type: biochemical; settings: for Selectivity LMP7 vs Beta5: LMP7 versus Beta5, incubation for 20 minutes; for pIC50: purified human immuno proteasome 0.25 nM, incubation for 20 minutes at 25° C., Suc-LLVY-AMC 40 μM
Method: Determination of LMP7 Activity:
Measurement of LMP7 inhibition is performed in 384 well format based on fluorescence intensity assay.
as §1, with “immuno” for “constitutive”, “(0.25” for “(1.25”
as §2

[3] = target: LMP7 subunit of the immunoproteasome (Homo sapiens, UniProt P20618+P28062); settings: Singh et al, Br. J. Hematology 152(2): 155-163; cited from earlier work

SMILES | pIC50 [1] | Selectivity LMP7 vs Beta5 [2] | pIC50 [2] | selective inhibitor of the LMP7 subunit of the immunoproteasome [3] [fold]
Cc1cccc2c(C[C@H](NC(=O)[C@H]3CCCO3)B(O)O)coc12 [Compound 29, [(1R)-2-(7-methylbenzo-furan-3-yl)-1-[[(2R)-tetrahydrofuran-2-carbonyl]amino]ethyl]-boronic acid] | 5.30 to 6.30 | ++ (100 ≤ Selectivity < 300) | ≥ 7.30 | 
Cc1cccc2c(C[C@@H](NC(=O)[C@H]3CCCO3)B(O)O)coc12 [Compound 30] | 4.52 to 5.30 | ++ (100 ≤ Selectivity < 300) | 6.30 to 7.30 | 
COCCC(=O)N[C@@H](Cc1coc2ccccc12)B(O)O [Compound 31, [(1R)-2-(benzofuran-3-yl)-1-(3-methoxy-propanoylamino)ethyl]-boronic acid] | 6.30 to 7.30 | ++ (100 ≤ Selectivity < 300) | ≥ 7.30 | 
O=C(N[C@@H](Cc1coc2ccccc12)B(O)O)[C@H]1CCOC1 [Compound 32, [(1R)-2-(benzofuran-3-yl)-1-[[(3S)-tetrahydro-furan-3-carbonyl]-amino]ethyl]boronic acid] | 4.52 to 5.30 | ++ (100 ≤ Selectivity < 300) | ≥ 7.30 | 
O=C(N[C@@H](Cc1coc2ccccc12)B(O)O)[C@@H]1CCOC1 [Compound 33, [(1R)-2-(benzofuran-3-yl)-1-[[(3R)-tetrahydro-furan-3-carbonyl]-amino]ethyl]boronic acid] | 5.30 to 6.30 | ++++ (Selectivity ≥ 500) | ≥ 7.30 | 
O=C(N[C@@H](Cc1coc2ccccc12)B(O)O)C1COc2ccccc21 (stereo partly drawn) [Compound 35, [(1R)-2-(benzofuran-3-yl)-1-(2,3-dihydrobenzo-furan-3-carbonylamino)-ethyl]boronic acid] | 5.30 to 6.30 | ++++ (Selectivity ≥ 500) | ≥ 7.30 | 
O=C(N[C@@H](Cc1coc2ccccc12)B(O)O)C1OCCc2ccccc21 (stereo partly drawn) [Compound 38, [(1R)-2-(benzofuran-3-yl)-1-(isochromane-1-carbonylamino)ethyl]-boronic acid] | 5.30 to 6.30 | +++ (300 ≤ Selectivity < 500) | ≥ 7.30 | 
O=C(N[C@@H](Cc1coc2ccccc12)B(O)O)[C@@H]1COCCO1 [Compound 39, [(1R)-2-(benzofuran-3-yl)-1-[[(2S)-1,4-dioxane-2-carbonyl]-amino]ethyl]boronic acid] | 5.30 to 6.30 | ++ (100 ≤ Selectivity < 300) | ≥ 7.30 | 
O=C(N[C@@H](Cc1coc2ccccc12)B(O)O)[C@H]1COCCO1 [Compound 40, [(1R)-2-(benzofuran-3-yl)-1-[[(2R)-1,4-dioxane-2-carbonyl]-amino]ethyl]boronic acid] | 5.30 to 6.30 | + (Selectivity <100) | ≥ 7.30 | 
O=C(N[C@@H](C[C@@H]1COc2ccccc21)B(O)O)[C@@H]1CCOC1 [Compound 41, [(1R)-2-[(3S)-2,3-dihydrobenzofuran-3-yl]-1-[[(3R)-tetra-hydrofuran-3-carbonyl]-amino]ethyl]boronic acid] | 4.52 to 5.30 | ++++ (Selectivity ≥ 500) | 6.30 to 7.30 | 
Cc1cccc2c1OC[C@H]2C[C@H](NC(=O)[C@@H]1CCOC1)B(O)O [Compound 42, [(1R)-2-[(3S)-7-methyl-2,3-dihydrobenzofuran-3-yl]-1-[[(3R)-tetra-hydrofuran-3-carbonyl]-amino]ethyl]boronic acid] | 4.52 to 5.30 | +++ (300 ≤ Selectivity < 500) | 6.30 to 7.30 | 
CC1=C(C(=O)N[C@H](C)C(=O)N[C@@H](Cc2c[nH]c3ccccc23)C(=O)N[C@@H](Cc2ccccc2)C(=O)[C@@]2(C)CO2)Cc2ccccc21 [PR-924] |  |  |  | 100
